Laboratory results published in article PMC6072878, “Brasilianoids A–F, New Meroterpenoids From the Sponge-Associated Fungus Penicillium brasilianum” (Frontiers in Chemistry, 2018).
Like-named read-outs stand apart in the source and are kept apart here.

What was measured:
[1] = system: NO production in LPS-induced RAW 264.7 macrophages; experiment: Inhibition of LPS induced NO production in RAW264.7 macrophages (Griess reagent); type: cell-based, mouse
Procedure: All compounds were assayed by measuring the inhibitory effects on NO production induced by LPS in mouse macrophage RAW 264.7 cells. The RAW 264.7 cells were seeded in each well of a 96-well plate at a concentration of 5 × 10^5 cells/ml in DMEM medium containing 10% fetal bovine serum, 2 mmol/l glutamine, 100 U/ml penicillin, and 100 μg/ml streptomycin. After incubation at 37°C in a humidified atmosphere of 5% CO2 air for 12 h, cells were treated with LPS (1 μg/ml) and compounds ([…], and compound was dissolved in DMSO to dilute until the final DMSO concentration <0.1%, v/v), then incubation for 24 h at 37°C. NO production was determined by measuring the quantity of nitrite in the culture medium by the Griess reagent. Aminoguanidine was selected as a positive control. A 50 μl of the supernatant of culture medium was mixed with 100 μl of the Griess reagent. Using nitrite to generate a standard curve, nitrite production was measured by a microplate reader at 540 nm. Cell viability was examined by the MTT method (Wu et al., [2016]). The compounds with inhibitory rate more than 50% at a dose of 50 μg/ml were further detected in the gradient concentrations to calculate IC50 values. […]
(§1) 7. Assay for inhibition toward nitric oxide production in RAW264.7 macrophages The experiment was conducted according to a literature procedure.1 Murine monocytic RAW264.7 cells grown in 96-well cell culture plates (2 × 10^5 cells/well) and pretreated with serial concentrations of the compounds 1‒8 for 30 min, followed by stimulation with LPS (1 μg/mL) under a humidified atmosphere with 5% CO2 at 37°C. After 24 h, the NO production of the supernatant was determined by adding the 100 μL of Griess reagent. Subsequently, the MTT
(§2) [3-(4,5-dimethylthiazol-2-yl)-2,5-diphenyltetrazolium bromide] reduction2 was used to evaluate the cell viability, and results were expressed as the mean value of triplicate determinations. The positive control was aminoguanidine.2 […]

[2] = Cytotoxic activity toward tumor cell line SMMC7721; type: cell-based; conditions: human, SMMC7721 tumor cells
[3] = Cell viability of RAW264.7 macrophages (MTT method); type: cell-based, mouse; conditions: mouse
Procedure: as §1, §2

[4] = Cytotoxic activity toward tumor cell line U937; type: cell-based; conditions: human, U937 tumor cells
[5] = Cytotoxic activity toward tumor cell line A549; type: cell-based; conditions: human, A549 tumor cells
[6] = system: HBV virus in HepG2.2.15 cells; experiment: In vitro anti-HBV effects (HBV DNA, real time PCR); type: cell-based; conditions: 10 μM
Procedure: HepAD38 cells were cultured with DMEM in 48-well plate at 1 × 10^5 cells/well for 24 h, then treated with 10 μM of each compound for 72 h. After 4 days, the cells were washed with precooled PBS for 2 times. HBV progeny DNA of HepAD38 cells were extracted using QIAamp DNA Blood Mini kit (Biomiga) according to the manufacturer's instruction. Total DNA was reversely transcribed using PrimeScript RT reagent Kit (Takara, Dalian, China). PCR amplification was performed on an StepOne Plus real time PCR system (Applied Biosystems, Foster City, CA) using the SYBR Green Master Mix (Applied Biosystems, Foster City, CA). All experiments were performed in triplicate, and the relative levels of assayed HBV DNA were calculated with the delta–delta CT method using lamivudine as a positive control, and normalized to non-treated control. […]
8. Assay for in vitro anti-HBV effects
HepG2. 2. 15 cells were cultured with DMEM in 48-well plate at 1×10^5 cells/well for 24 h, then treated with 10 µM of compounds for 72 h. At d 4, these cells were washed 2 times with precooled PBS, and treated with 10 µM of compounds for 72 h.
HBV progeny DNA of HepG2. 2. 15 cells were extracted using QIAamp DNA Blood Mini kit (Biomiga) according to the manufacturer's instruction. Then total DNA was reverse transcribed using PrimeScript RT reagent Kit (Takara, Dalian, China). The primers were designed and synthesized by Takara, and the sequences of the primers […]
PCR amplification was performed on an StepOne Plus real time PCR system (Applied Biosystems, Foster City, CA) using the SYBR Green Master Mix (Applied Biosystems, Foster City, CA). All experiments were performed in triplicate, and the relative levels of assayed HBV DNA were calculated with the […]
delta‒delta CT method using lamivudine expressions as positive control, and normalized to non-treated control. […]
(Takara, Dalian, China). The primers were designed and synthesized by Takara, the […]
performed on an StepOne Plus real time PCR system (Applied Biosystems, Foster City, CA) using the SYBR Green Master Mix (Applied Biosystems, Foster City, CA). […]

HaCaT cells = experiment: Protection against UVB-induced cell damage in HaCaT cells (MTT assay); type: cell-based; conditions: HaCaT cells, UVB 30 mJ/cm^2, 20 μM, 24 h; UVB alone 70% of normal group
Procedure: HaCaT cells were seeded at 5 × 10^5 cells per well in 6-well plates and incubated under starvation conditions for 24 h using serum-free MEM. HaCaT cells were exposed to UVB irradiation (UVB lamp: SUV-1000, Sigma-China) at a dose of 30 mJ/cm^2. After UVB irradiation, DMEM medium containing 1 (20 μM) or epigallocatechin gallate (20 μM) was added and the cells were incubated for 24 h, and then the MTT assay was performed.

[7] = RAW264.7, MTT, Table 3, read-out: CC50 (μM) Cytotoxicity
[8] = Table S9 of the supplement, read-out: CC50 (M), 50% cytotoxic concentration
[9] = Mus musculus, RAW264.7, read-out: IC50 (M), 50% inhibitory concentration
[10] = RAW264.7 macrophages, RAW264.7, MTT, Table 3, read-out: CC50 (μM) Cytotoxicity
[11] = RAW264.7 macrophages, Table S9 of the supplement, read-out: CC50 (M), 50% cytotoxic concentration
[12] = Mus musculus, RAW264.7, 24 h, LPS 1 μg/ml, 24 h
[13] = Mus musculus, RAW264.7, Table S9 of the supplement, read-out: IC50 (M), 50% inhibitory concentration

| Structure (SMILES) | IC50 [2] | IC50 [4] | IC50 [5] | CC50 at 24 h [3, 10] | CC50 at 24 h [3, 11] | inhibitory rate of DNA expression of the HBV virus [6] | inhibition at 50 µg/mL [1, 12] | IC50 [1, 13] | other results |
| --- | --- | --- | --- | --- | --- | --- | --- | --- | --- |
| N=C(N)NN [Aminoguanidine, reference compound] |  |  |  |  |  |  |  |  | IC50 ([1]; LPS 1 μg/ml, 24 h, Table 3, read-out: IC50 (μM) NO): 7.62 ± 0.08 µM |
| C=C1[C@@]2(C)C[C@H]3[C@]4(C)C=CC(=O)OC(C)(C)[C@H]4CC[C@]3(C)[C@]1(C(=O)OC)C(=O)[C@@](C)(O)C2=O [Compound 8, preaustinoid A2] | > 10 µM | > 10 µM | > 10 µM |  |  |  |  |  | CC50 at 24 h [3, 7]: > 100 µM; CC50 at 24 h [3, 8]: > 50 µM; IC50 [1, 9]: > 50 µM |
| C=C1[C@@]2(C)C[C@H]3[C@](C)(CCC(=O)OC)[C@@H](C(C)(C)O)CC[C@]3(C)[C@@]13C(=O)O[C@@H](C)[C@@]3(O)C2=O [Compound 5, methyl 3-((3S, 3aR, 5R, 6aS, 7S, 8S, 10aS, 10bR)-3a-hydroxy-8-(2-hydroxypropan-2-yl)-3,5,7,10a-tetramethyl-11-methylene-1,4-dioxodecahydro-1H,3H-5,10b-methanobenzo[3,4]cyclohepta[1,2-c]furan-7-yl)propanoate] | > 10 µM | > 10 µM | > 10 µM | > 100 µM | > 50 µM | 10% | 36% | > 50 µM |  |
| C=C1[C@@]2(C)C[C@H]3[C@](C)(CCC(=O)OC)[C@@H](C(C)(C)O)CC[C@]3(C)[C@@]13C(=O)O[C@H](C)[C@@]3(O)C2=O [Compound 4, methyl 3-((3R, 3aR, 5R, 6aS, 7S, 8S, 10aS, 10bR)-3a-hydroxy-8-(2-hydroxypropan-2-yl)-3,5,7,10a-tetramethyl-11-methylene-1,4-dioxodecahydro-1H,3H-5,10b-methanobenzo[3,4]cyclohepta[1,2-c]furan-7-yl)propanoate] | > 10 µM | > 10 µM | > 10 µM | > 100 µM | > 50 µM | 15% | 32% | > 50 µM |  |
| C=C1C2(C)CC3C4(C)C=CC(=O)OC(C)(C)C4CCC3(C)C13C(=O)OC(C)C3(O)C2=O [Compound 2, (5aS, 5bS, 7R, 8aR, 9S, 11aR, 11bS, 13aS)-8a-hydroxy-1,1,5a, 7,9, 11b-hexamethyl-14-methylene-5a, 5b, 6,7,8a, 9, 11b, 12, 13, 13a-decahydro-1H, 11H-7,11a-methanofuro[3″,4″:3′,4′]cyclohepta[1′,2′:3,4]benzo[1,2-c]oxepine-3,8,11-trione] | > 10 µM | > 10 µM | > 10 µM | > 100 µM | > 50 µM |  | 58% |  | inhibition toward NO production (in words) ([1]; LPS-induced RAW 264.7 macrophages): moderate inhibition; IC50 ([1]; Mus musculus, RAW264.7, 24 h, LPS 1 μg/ml, 24 h, Table 3, read-out: IC50 (μM) NO): 37.7 ± 5.25 µM |
| C=C1[C@@]2(C)C[C@H]3[C@](C)(CCC(=O)OC)[C@@H](C(C)(C)O)CC[C@]3(C)[C@]1(C(=O)OC)C(=O)[C@@](C)(O)C2=O [Compound 7, preaustinoid D] | > 10 µM | > 10 µM | > 10 µM | > 100 µM | > 50 µM |  | 28% | > 50 µM |  |
| C=C1C2(C)CC3C4(C)C(O)C5CC(C)(OC5=O)C4CCC3(C)C13C(=O)OC(C)C3(O)C2=O [Compound 6, (1R, 4S, 5R, 5aS, 5bR, 7R, 8aR, 9R, 11aR, 11bS, 13aS)-5,8a-dihydroxy-1,5a,7,9,11b-pentamethyl-14-methylenedodecahydro-1H,11H-1,4:7,11a-dimethanofuro[3″,4″:3′,4′]cyclohepta[1′,2′:3,4]benzo[1,2-c]oxepine-3,8,11-trione] | > 10 µM | > 10 µM | > 10 µM |  |  |  |  |  | CC50 at 24 h [3, 7]: > 100 µM; CC50 at 24 h [3, 8]: > 50 µM; IC50 [1, 9]: > 50 µM |
| Nc1ccn([C@@H]2CS[C@H](CO)O2)c(=O)n1 [lamivudine, reference compound] |  |  |  |  |  | 75% |  |  |  |
| O=C(O[C@@H]1Cc2c(O)cc(O)cc2O[C@@H]1c1cc(O)c(O)c(O)c1)c1cc(O)c(O)c(O)c1 [epigallocatechin gallate, reference compound] |  |  |  |  |  |  |  |  | cell viability after UVB irradiation (HaCaT cells): 75% |
